Patent US11707462B2, “Checkpoint kinase 1 (CHK1) inhibitors and uses thereof” (Boundless Bio, Inc., priority 2021, dated 2023)

Legend:
[1] = target: T1, Full-length human Chk1 protein (Homo sapiens, UniProt O14757); assay: Kinase HTRF biochemical assay (HTRF KinEASE), Chk1 enzyme activity; details: full-length human Chk1, ATP 1 mM, 60 minutes at room temperature
T1 construct: purchased Carna Biosciences, Inc. 02-117
T1 sequence (O14757 1-476): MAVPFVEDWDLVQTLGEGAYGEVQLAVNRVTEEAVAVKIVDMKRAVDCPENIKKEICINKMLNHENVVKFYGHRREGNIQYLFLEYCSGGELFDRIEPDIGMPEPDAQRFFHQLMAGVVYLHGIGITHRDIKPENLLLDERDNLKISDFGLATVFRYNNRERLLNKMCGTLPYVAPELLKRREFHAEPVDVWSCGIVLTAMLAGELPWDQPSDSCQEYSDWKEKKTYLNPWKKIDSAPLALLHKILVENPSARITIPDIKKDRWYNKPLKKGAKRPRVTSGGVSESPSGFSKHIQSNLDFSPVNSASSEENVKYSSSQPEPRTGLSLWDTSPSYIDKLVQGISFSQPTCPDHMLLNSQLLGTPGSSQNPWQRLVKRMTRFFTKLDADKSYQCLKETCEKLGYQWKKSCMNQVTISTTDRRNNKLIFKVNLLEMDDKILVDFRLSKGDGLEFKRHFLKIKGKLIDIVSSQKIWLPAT
Method in brief: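 Full-length human Chk1 (0.012 ng/μL) in buffer with 5 mM MgCl2 and 1 mM DTT, preincubated with compound 10 min at room temperature; reaction with 120 nM biotinylated STK substrate 1 and 1 mM ATP for 60 min at room temperature. HTRF detection via cryptate antibody/streptavidin-XL665; IC50 from 10-point duplicate curves.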

[2] = test system: p-CHK1 (Ser345); assay: AlphaLISA SureFire Ultra p-CHK1 (Ser345) cellular assay in HT29 cells; assay type: cell-based; details: Homo sapiens, HT-29, 16 h at 37° C.
Experimental: Example B: AlphaLisa Cellular Assay
Compound activity in cells was measured using an AlphaLISA® SureFire® Ultra™ p-CHK1 (Ser345) assay (Perkin Elmer, catalog no. ALSU-PCHK1-A10K). HT29 cells were cultured in McCoy 5A medium with 10% FBS and 1% penicillin-streptomycin and seeded to 96-well plates (Corning, catalog no. 3599). Compounds were serially diluted in DMSO over a 10-point dose range with 3-fold dilution and to each well containing cells was added compound solution. Plates were centrifuged at 1000 rpm for 30 seconds. Plates were incubated at 37° C. for 16 h. Supernatant was removed by flicking the plate against a paper towel. Wells were washed once with PBS solution. To each well was added freshly prepared lysis buffer and plates were agitated on a plate shaker at 400 rpm for 30 min. The 96-well cell plates were centrifuged at 1500 rpm for 1 minute. From each well was transferred 10 μL of the lysates to a 384-well Optiplate™ (Perkin Elmer, catalog no. 6007290). To each well was added Acceptor Mix (5 μL) and the plates were sealed and wrapped in foil. Plates were agitated on a plate shaker for 2 minutes, then incubated at room temperature for 1 h. To each well was added Donor Mix (5 μL) and the plates were sealed and wrapped in foil. Plates were agitated on a plate shaker for 2 minutes, then incubated at room temperature for 1 h. AlphaLisa signal was read on an EnVision multimode plate reader (Perkin Elmer). Data were fit to dose-response curves using XLfit (IDBS, Surrey, UK) or Prism (GraphPad Software, La Jolla, Calif., US) to calculate IC50 values for each compound tested.

SMILES	IC50 [1]	IC50 [2]
CN[C@@H]1CC[C@@H](Oc2ccc(Cl)c(F)c2-c2cc(Nc3cnc(C#N)cn3)n[nH]2)C1 [Example 3-22, 5-((5-(3-chloro-2-fluoro-6-(((1R,3R)-3-(methylamino)cyclopentyl)oxy)phenyl)-1H-pyrazol-3-yl)amino)pyrazine-2-carbonitrile]	10 to 100 nM	100 to 500 nM
COc1c(C)ccc(O[C@@H]2CC[C@H](N)C2)c1-c1cc(Nc2cnc(C#N)cn2)n[nH]1 [Example 4-1, 5-((5-(6-(((1R,3S)-3-aminocyclopentyl)oxy)-2-methoxy-3-methylphenyl)-1H-pyrazol-3-yl)amino)pyrazine-2-carbonitrile]	100 to 500 nM	500 to 1000 nM
Cc1ccc(O[C@@H]2CC[C@@H](N)C2)c(-c2cc(Nc3cnc(C#N)cn3)n[nH]2)n1 [Example 1-60, 5-((5-(3-(((1R,3R)-3-aminocyclopentyl)oxy)-6-methylpyridin-2-yl)-1H-pyrazol-3-yl)amino)pyrazine-2-carbonitrile]	≤ 10 nM	≤ 50 nM
CN[C@H]1C[C@H](Oc2cccc(F)c2-c2cc(Nc3cnc(C#N)cn3)n[nH]2)C1 [Example 2-5, 5-((5-(2-fluoro-6-((1r,3r)-3-(methylamino)cyclobutoxy)phenyl)-1H-pyrazol-3-yl)amino)pyrazine-2-carbonitrile]	10 to 100 nM	100 to 500 nM
CN[C@@H]1CC[C@@H](Oc2cccc(F)c2-c2cc(Nc3cnc(C#N)cn3)n[nH]2)C1 [Example 1-43, 5-((5-(2-fluoro-6-(((1R,3R)-3-(methylamino)cyclopentyl)oxy)phenyl)-1H-pyrazol-3-yl)amino)pyrazine-2-carbonitrile]	10 to 100 nM	≤ 50 nM
COc1cccc(O[C@H]2CC[C@@H](N)C2)c1-c1cc(Nc2cnc(C#N)cn2)n[nH]1 [Example 2-2, 5-((5-(2-(((1S,3R)-3-aminocyclopentyl)oxy)-6-methoxyphenyl)-1H-pyrazol-3-yl)amino)pyrazine-2-carbonitrile]	10 to 100 nM	500 to 1000 nM
N#Cc1cnc(Nc2cc(-c3ncccc3O[C@@H]3CC[C@H](N)C3)[nH]n2)cn1 [Example 1-63, 5-((5-(3-(((1R,3S)-3-aminocyclopentyl)oxy)pyridin-2-yl)-1H-pyrazol-3-yl)amino)pyrazine-2-carbonitrile]	10 to 100 nM	100 to 500 nM
[2H]C([2H])([2H])Oc1cccc(O[C@@H]2CC[C@H](N)C2)c1-c1cc(Nc2cnc(C#N)cn2)n[nH]1 [Example 3-15, 5-((5-(2-(((1R,3S)-3-aminocyclopentyl)oxy)-6-(methoxy-d3)phenyl)-1H-pyrazol-3-yl)amino)pyrazine-2-carbonitrile]	≤ 10 nM	≤ 50 nM
Cc1ccc(O[C@@H]2CC[C@H](N)C2)c(-c2cc(Nc3cnc(C#N)cn3)n[nH]2)c1F [Example 3-16, 5-((5-(6-(((1R,3S)-3-aminocyclopentyl)oxy)-2-fluoro-3-methylphenyl)-1H-pyrazol-3-yl)amino)pyrazine-2-carbonitrile]	10 to 100 nM	100 to 500 nM
COc1cccc(O[C@@H]2CC[C@H]2N)c1-c1cc(Nc2cnc(C#N)cn2)n[nH]1 [Example 3-2, 5-((5-(2-((1R,2R)-2-aminocyclobutoxy)-6-methoxyphenyl)-1H-pyrazol-3-yl)amino)pyrazine-2-carbonitrile]	≤ 10 nM	≤ 50 nM
Cc1ccc(O[C@@H]2CC[C@@H](N)C2)c(-c2cc(Nc3cnc(C#N)cn3)n[nH]2)c1F [Example 3-26, 5-((5-(6-(((1R,3R)-3-aminocyclopentyl)oxy)-2-fluoro-3-methylphenyl)-1H-pyrazol-3-yl)amino)pyrazine-2-carbonitrile]	≤ 10 nM	≤ 50 nM
COc1cccc(O[C@H]2CC3(C[C@@H](N)C3)C2)c1-c1cc(Nc2cnc(C#N)cn2)n[nH]1 (stereo partly drawn) [Example 3-10, 5-((5-(2-((6-aminospiro[3.3]heptan-2-yl)oxy)-6-methoxyphenyl)-1H-pyrazol-3-yl)amino)pyrazine-2-carbonitrile]	≤ 10 nM	≤ 50 nM
Cc1cc(F)c(-c2cc(Nc3cnc(C#N)cn3)n[nH]2)c(O[C@@H]2CC[C@@H](N)C2)c1 [Example 5-1, 5-((5-(2-(((1R,3R)-3-aminocyclopentyl)oxy)-6-fluoro-4-methylphenyl)-1H-pyrazol-3-yl)amino)pyrazine-2-carbonitrile]	≤ 10 nM	≤ 50 nM
N#Cc1cnc(Nc2cc(-c3c(F)cccc3O[C@H]3CC[C@H](N)CC3)[nH]n2)cn1 [Example 1-19, 5-((5-(2-(((1r,4r)-4-aminocyclohexyl)oxy)-6-fluorophenyl)-1H-pyrazol-3-yl)amino)pyrazine-2-carbonitrile]	10 to 100 nM	100 to 500 nM
Cc1nc(-c2cc(Nc3cnc(C#N)cn3)n[nH]2)c(O[C@@H]2CC[C@H](N)C2)cc1F [Example 3-50, 5-((5-(3-(((1R,3S)-3-aminocyclopentyl)oxy)-5-fluoro-6-methylpyridin-2-yl)-1H-pyrazol-3-yl)amino)pyrazine-2-carbonitrile]	10 to 100 nM	50 to 100 nM
N#Cc1cnc(Nc2cc(-c3c(F)cccc3O[C@@H]3CCC[C@H]3N)[nH]n2)cn1 [Example 3-40, 5-((5-(2-(((1R,2R)-2-aminocyclopentyl)oxy)-6-fluorophenyl)-1H-pyrazol-3-yl)amino)pyrazine-2-carbonitrile]	≤ 10 nM	≤ 50 nM
N#Cc1cnc(Nc2cc(-c3ccccc3O[C@H]3CC[C@@H](N)CC3)[nH]n2)cn1 [Example 1-50, 5-((5-(2-(((1s,4s)-4-aminocyclohexyl)oxy)phenyl)-1H-pyrazol-3-yl)amino)pyrazine-2-carbonitrile]	100 to 500 nM	> 1000 nM
N#Cc1cnc(Nc2cc(-c3ccccc3O[C@H]3C[C@@H](N)C3)[nH]n2)cn1 [Example 1-10, 5-((5-(2-((1s,3s)-3-aminocyclobutoxy)phenyl)-1H-pyrazol-3-yl)amino)pyrazine-2-carbonitrile]	100 to 500 nM	> 1000 nM
N#Cc1cnc(Nc2cc(-c3c(O[C@@H]4CC[C@H](N)C4)ccc(Cl)c3F)[nH]n2)cn1 [Example 3-19, 5-((5-(6-(((1R,3S)-3-aminocyclopentyl)oxy)-3-chloro-2-fluorophenyl)-1H-pyrazol-3-yl)amino)pyrazine-2-carbonitrile]	10 to 100 nM	> 1000 nM
CN[C@H]1CC[C@@H](Oc2cccc(OC)c2-c2cc(Nc3cnc(C#N)cn3)n[nH]2)C1 [Example 1-46, 5-((5-(2-methoxy-6-(((1R,3S)-3-(methylamino)cyclopentyl)oxy)phenyl)-1H-pyrazol-3-yl)amino)pyrazine-2-carbonitrile]	≤ 10 nM	≤ 50 nM
Cc1ccc(O[C@H]2CC[C@H](N)CC2)c(-c2cc(Nc3cnc(C#N)cn3)n[nH]2)n1 [Example 1-56, 5-((5-(3-(((1r,4r)-4-aminocyclohexyl)oxy)-6-methylpyridin-2-yl)-1H-pyrazol-3-yl)amino)pyrazine-2-carbonitrile]	≤ 10 nM	100 to 500 nM
N#Cc1cnc(Nc2cc(-c3c(F)cccc3O[C@@H]3CC[C@H](N)C3)[nH]n2)cn1 [Example 1-22, 5-((5-(2-(((1R,3S)-3-aminocyclopentyl)oxy)-6-fluorophenyl)-1H-pyrazol-3-yl)amino)pyrazine-2-carbonitrile]	10 to 100 nM	100 to 500 nM
N#Cc1cnc(Nc2cc(-c3ccccc3O[C@H]3CC[C@@H](N)C3)[nH]n2)cn1 [Example 2-1, 5-((5-(2-(((1S,3R)-3-aminocyclopentyl)oxy)phenyl)-1H-pyrazol-3-yl)amino)pyrazine-2-carbonitrile]	500 to 1000 nM	> 1000 nM
N#Cc1cnc(Nc2cc(-c3c(O[C@@H]4CC[C@@H](N)C4)ccc(F)c3F)[nH]n2)cn1 [Example 3-28, 5-((5-(6-(((1R,3R)-3-aminocyclopentyl)oxy)-2,3-difluorophenyl)-1H-pyrazol-3-yl)amino)pyrazine-2-carbonitrile]	≤ 10 nM	100 to 500 nM
